Measured values as given in patent publication US20130204033A1, “ANTIPROLIFERATIVE COMPOUNDS, CONJUGATES THEREOF, METHODS THEREFOR, AND USES THEREOF” (Medarex, Inc., priority 2009, published 2013).
Read-outs that look alike come from different tables or passages of the source.

Assays:
Type in all cases: cell-based, human
OVCAR3 = experiment: 3H thymidine proliferation assay, OVCAR3
How it was run: (§1)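 Cells seeded at 1.0×10^4 cells/well for 3 h, then exposed to 1:3 serial dilutions of free compounds or conjugates for 72 h. 1.0 μCi ^3H-thymidine per well was added for the last 24 h, and incorporation was read by scintillation counting. EC50 is the concentration reducing proliferation by 50%.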

UO-31 = experiment: 3H thymidine proliferation assay, UO-31
How it was run: as §1

Raji [1] = experiment: ATP luminescence proliferation assay, Raji
How it was run: (§2)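 ATP luminescence read-out after 48, 72 or 96 h exposure to 1:3 serially diluted unconjugated compounds or conjugates; 1.0×10^3 cells/well plated 3 h before dosing. EC50 = 50% reduction of proliferation.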

Raji [2] = experiment: 3H thymidine proliferation assay, Raji
How it was run: as §1

U-87 MG [3] = experiment: 3H thymidine proliferation assay, U-87 MG
How it was run: as §1

SK-BR3 [4] = experiment: 3H thymidine proliferation assay, SK-BR3; conditions: 3H thymidine method, 72 h incubation
How it was run: as §1

HCT-15 = experiment: ATP luminescence proliferation assay, HCT-15
How it was run: as §2

HPAC [5] = experiment: ATP luminescence proliferation assay, HPAC
Experimental: This example generally describes the procedures used to assay the antiproliferative activity of compounds of this invention or their conjugates. Human tumor cell lines were obtained from the American Type Culture Collection (ATCC), P.O. Box 1549, Manassas, Va. 20108, USA, and cultured according to instruction from the ATCC. Cells were seeded at 1.0×10^3 or 1.0×10^4 cells/well in 96-well plates for 3 h for ATP assays or ^3H thymidine assays, respectively. 1:3 serial dilutions of free (unconjugated) compounds or their conjugates were added to the wells. Plates were allowed to incubate for 24 to 72 h. The ^3H thymidine plates were pulsed with 1.0 μCi of ^3H-thymidine per well for the last 24 hours of the total incubation period, harvested, and read on a Top Count Scintillation Counter (Packard Instruments, Meriden, Conn.). ATP levels in the ATP plates were measured using the […]-GLO® Luminescent Cell Viability kit following the manufacturer's manual and read on a GLOMAX® 20/20 luminometer (both from Promega, Madison, Wis., USA). The EC50 values—the concentration at which an agent inhibits or reduces cell proliferation by 50% —were determined using PRISM™ software, version 4.0 (GraphPad Software, La Jolla, Calif., USA).
Using the ^3H thymidine or the ATP luminescence assay, or both, the activities of compounds of this invention were assayed against the following cancer cell lines: HCT-15 (colorectal cancer, multi-drug resistant (MDR)); Hep3B (liver cancer); LNCaP (prostate cancer, androgen receptor positive (AR^+)); MDA-MB-231 (breast cancer, estrogen receptor, progesterone receptor, and Her2 negative (triple negative)); A2058 (melanoma); U-87 MG (glioblastoma); NCI-H460 (NSCLC); A549 (NSCLC); HPAC (pancreatic cancer, primary); PC3 (prostate cancer, AR); BT474 (breast cancer, Her2 highly positive (Her2hi)); SKOV3 (ovarian cancer, Her2hi); 786-O (renal cancer); UO-31 (renal cancer, MDR); NCI-H740 (SCLC); DMS53 (SCLC); SK-BR3 (breast cancer, Her2hi); ZR-75 (breast cancer, estrogen receptor positive); OVCAR3 (ovarian cancer); HL-60 (APL); OVCAR8/Adr (ovarian cancer, MDR); CEM-Cl (ALL); Nomo-1 (AML); RPMI-8226 (MM)); Raji (lymphoma); SW-480 (colorectal cancer, metastatic); SW-620 (colorectal cancer); and H226 (lung cancer). (Not all compounds were assayed against all cell lines.)
Table 3 provides the data for the ATP luminescence proliferation assays, with an incubation period of 48, 72, or 96 h, as noted.

DMS53 = experiment: ATP luminescence proliferation assay, DMS53
How it was run: as §2

ZR-75 = experiment: ATP luminescence proliferation assay, ZR-75
How it was run: as §2

786-O = experiment: 3H thymidine proliferation assay, 786-O
How it was run: as §1

U-87 MG [6] = experiment: ATP luminescence proliferation assay, U-87 MG
How it was run: as §2

HL-60 = experiment: 3H thymidine proliferation assay, HL-60
How it was run: as §1

MDA-MB-231 = experiment: ATP luminescence proliferation assay, MDA-MB-231
How it was run: as §2

RPMI-8226 = experiment: 3H thymidine proliferation assay, RPMI-8226
How it was run: as §1

HPAC [7] = experiment: 3H thymidine proliferation assay, HPAC
How it was run: as §1

SK-BR3 [8] = experiment: ATP luminescence proliferation assay, SK-BR3
How it was run: as §2

A2058 = experiment: 3H thymidine proliferation assay, A2058; conditions: 3H thymidine method, 72 h incubation
How it was run: as §1

BT474 = experiment: 3H thymidine proliferation assay, BT474
How it was run: as §1

LNCaP = experiment: 3H thymidine proliferation assay, LNCaP
How it was run: as §1

[9] = 3H thymidine method, 72 h incubation, read-out: EC50, OVCAR3
[10] = 3H thymidine method, 72 h incubation, read-out: EC50, UO-31
[11] = ATP luminescence, 72 h incubation, read-out: EC50 Raji (72 h)
[12] = 3H thymidine method, 72 h incubation, read-out: EC50, Raji
[13] = 3H thymidine method, 72 h incubation, read-out: EC50, U-87 MG
[14] = ATP luminescence, 72 h incubation, read-out: EC50 HPAC (72 h)
[15] = ATP luminescence, ZR-75, 48 h incubation, read-out: EC50 ZR-75 (48 h)
[16] = 3H thymidine method, 72 h incubation, read-out: EC50, 786-O
[17] = ATP luminescence, 72 h incubation, read-out: EC50 U-87 MG (72 h)
[18] = 3H thymidine method, 72 h incubation, read-out: EC50, HL-60
[19] = 3H thymidine method, 72 h incubation, read-out: EC50, RPMI-8226
[20] = 3H thymidine method, 72 h incubation, read-out: EC50, HPAC
[21] = ATP luminescence, SK-BR3, 48 h incubation, read-out: EC50 SK-BR3 (48 h)
[22] = 3H thymidine method, 72 h incubation, read-out: EC50, BT474
[23] = 3H thymidine method, 72 h incubation, read-out: EC50, LNCaP

| SMILES | EC50 (OVCAR3; [9]) [nM] | EC50 (UO-31; [10]) [nM] | EC50 (Raji [1]; [11]) [nM] | EC50 (Raji [2]; [12]) [nM] | EC50 (U-87 MG [3]; [13]) [nM] | EC50 (SK-BR3 [4]) [nM] | EC50 (HPAC [5]; [14]) [nM] | EC50 (ZR-75; [15]) [nM] | EC50 (786-O; [16]) [nM] | EC50 (U-87 MG [6]; [17]) [nM] | EC50 (HL-60; [18]) [nM] | EC50 (RPMI-8226; [19]) [nM] | EC50 (HPAC [7]; [20]) [nM] | EC50 (SK-BR3 [8]; [21]) [nM] | EC50 (A2058) [nM] | EC50 (BT474; [22]) [nM] | EC50 (LNCaP; [23]) [nM] | other results |
| --- | --- | --- | --- | --- | --- | --- | --- | --- | --- | --- | --- | --- | --- | --- | --- | --- | --- | --- |
| CC[C@H](C)[C@H](NC(=O)[C@H]1CCCCN1C)C(=O)N(C)[C@H](C[C@@H](OC)c1nc(C(=O)N[C@H](CC(=O)OC)Cc2ccccc2)cs1)C(C)C [Compound 25] |  |  |  |  |  |  |  |  |  |  |  |  |  |  |  |  |  | EC50 (OVCAR3; Homo sapiens, OVCAR-3, read-out: EC50, OVCAR3, 3H thymidine method, 72 h incubation): 379 nM; EC50 (UO-31; Homo sapiens, UO-31, read-out: EC50, UO-31, 3H thymidine method, 72 h incubation): 435 nM; EC50 (Raji [1]; Homo sapiens, 72 h, read-out: EC50 Raji (72 h), ATP luminescence, Raji, 72 h incubation): 209 nM; EC50 (Raji [2]; Homo sapiens, Raji, read-out: EC50, Raji, 3H thymidine method, 72 h incubation): 231 nM; EC50 (U-87 MG [3]; Homo sapiens, U-87 MG, read-out: EC50, U-87 MG, 3H thymidine method, 72 h incubation): 271 nM; EC50 (SK-BR3 [4]; Homo sapiens, SK-BR-3): 1710 nM; EC50 (HCT-15; Homo sapiens, HCT-15, 72 h, read-out: EC50 HCT-15 (72 h), ATP luminescence, HCT-15, 72 h incubation): 366 nM; EC50 (HPAC [5]; Homo sapiens, 72 h, read-out: EC50 HPAC (72 h), ATP luminescence, HPAC, 72 h incubation): 97 nM; EC50 (DMS53; Homo sapiens, DMS-53, 48 h, read-out: EC50 DMS53 (48 h), ATP luminescence, DMS53, 48 h incubation): 366 nM; EC50 (ZR-75; Homo sapiens, ZR75, 48 h, read-out: EC50 ZR-75 (48 h), ATP luminescence, ZR-75, 48 h incubation): 1000 nM; EC50 (786-O; Homo sapiens, 786-0, read-out: EC50, 786-O, 3H thymidine method, 72 h incubation): 1860 nM; EC50 (U-87 MG [6]; Homo sapiens, 72 h, read-out: EC50 U-87 MG (72 h), ATP luminescence, U-87 MG, 72 h incubation): 357 nM; EC50 (HL-60; Homo sapiens, HL-60, read-out: EC50, HL-60, 3H thymidine method, 72 h incubation): 308 nM; EC50 (MDA-MB-231; Homo sapiens, MDA-MB-231, 72 h, read-out: EC50 MDA-MB-231 (72 h), ATP luminescence, MDA-MB-231, 72 h incubation): 202 nM; EC50 (RPMI-8226; Homo sapiens, RPMI-8226, read-out: EC50, RPMI-8226, 3H thymidine method, 72 h incubation): 396 nM; EC50 (HPAC [7]; Homo sapiens, HPAC, read-out: EC50, HPAC, 3H thymidine method, 72 h incubation): 206 nM; EC50 (SK-BR3 [8]; Homo sapiens, SK-BR-3, 48 h, read-out: EC50 SK-BR3 (48 h), ATP luminescence, SK-BR3, 48 h incubation): > 3000 nM; EC50 (A2058; Homo sapiens, A2058): 409 nM; EC50 (BT474; Homo sapiens, BT-474, read-out: EC50, BT474, 3H thymidine method, 72 h incubation): 804 nM; EC50 (LNCaP; Homo sapiens, LNCaP, read-out: EC50, LNCaP, 3H thymidine method, 72 h incubation): 930 nM |
| CC[C@H](C)[C@H](NC(=O)[C@H]1CCCCN1C)C(=O)N(COC(=O)CC(C)C)[C@H](C[C@@H](OC(C)=O)c1nc(C(=O)N[C@@H](Cc2ccccc2)C(=O)OC)cs1)C(C)C [Compound 29] | 0.02 | 0.13 | 2.1 | 0.024 | 0.064 | 1.1 | 4.9 | 15 | 1.2 | 4.9 | 0.0099 | 0.034 | 0.069 | 3.6 | 0.4 | 0.57 | 0.54 | EC50 (HCT-15; ATP luminescence, HCT-15, 72 h incubation, read-out: EC50 HCT-15 (72 h)): 4.5 nM; EC50 (DMS53; ATP luminescence, DMS53, 48 h incubation, read-out: EC50 DMS53 (48 h)): 5.3 nM; EC50 (MDA-MB-231; ATP luminescence, MDA-MB-231, 72 h incubation, read-out: EC50 MDA-MB-231 (72 h)): 5.1 nM |
| CC[C@H](C)[C@H](NC(=O)[C@H]1CCCCN1C)C(=O)N(COC)[C@H](C[C@@H](OC)c1nc(C(=O)N[C@@H](Cc2ccccc2)C(=O)OC)cs1)C(C)C [Compound 29c] | 3.6 | 1 | 36 | 8.5 | 0.51 | 72 | 4.6 | 136 | 3.9 | 136 | 1.8 | 16 | 32 | 278 | 5.6 | 12 | 5.2 | EC50 (HCT-15; ATP luminescence, HCT-15, 48 h incubation, read-out: EC50 HCT-15 (48 h)): 200 nM; EC50 (DMS53; ATP luminescence, DMS53, 72 h incubation, read-out: EC50 DMS53 (72 h)): 17 nM; EC50 (MDA-MB-231; ATP luminescence, MDA-MB-231, 48 h incubation, read-out: EC50 MDA-MB-231 (48 h)): 52 nM |
